Measurements taken from ChEMBL document CHEMBL1137493, “Synthesis and potent antitumor activity of new arylamino derivatives of nor-beta-lapachone and nor-alpha-lapachone” (Bioorg Med Chem, 2007).
≈ marks a conversion by molar mass, not a printed value.

What was measured:
HL-60 = assay: Cytotoxicity against human HL60 cells after 72 hrs by MTT assay; type: functional, cell-based; details: HL-60, 72 h
SF-295 = assay: Cytotoxicity against human SF295 cells after 72 hrs by MTT assay; type: functional, cell-based; details: SF-295, 72 h
HCT-8 = assay: Cytotoxicity against human HCT8 cells after 72 hrs by MTT assay; type: functional, cell-based; details: HCT-8, 72 h
[1] = Toxicity assessed as hemolytic activity against mouse erythrocyte; type: cell-based; details: mouse erythrocytes
B16 = assay: Cytotoxicity against mouse B16 cells after 72 hrs by MTT assay; type: functional, cell-based; details: B16, 72 h
PC-3 = assay: Cytotoxicity against human PC3 cells after 72 hrs by MTT assay; type: cell-based; details: PC-3, 72 h
MDA-MB-435 = assay: Cytotoxicity against human MDA-MB-435 cells after 72 hrs by MTT assay; type: functional, cell-based; details: MDA-MB-435, 72 h
L929 = assay: Cytotoxicity against mouse L929 cells after 72 hrs by MTT assay; type: cell-based; details: L929, 72 h

Row | Structure (SMILES) | IC50 (HL-60) [µg/mL] | IC50 (SF-295) [µg/mL] | IC50 (HCT-8) [µg/mL] | EC50 [1] [µg/mL] | IC50 (B16) [µg/mL] | IC50 (PC-3) [µg/mL] | IC50 (MDA-MB-435) [µg/mL] | IC50 (L929) [µg/mL]
1 | Cc1ccc(C)c(NC2C3=C(OC2(C)C)c2ccccc2C(=O)C3=O)c1 (stereo not given) | 1.27 (≈ 3.66 µM) | 2.08 (≈ 5.99 µM) | 1.59 (≈ 4.58 µM) | > 200 | 3.03 (≈ 8.72 µM) | 0.32 (≈ 0.921 µM) | 0.27 (≈ 0.777 µM) | > 5
2 | CC1(C)OC2=C(C(=O)C(=O)c3ccccc32)C1Nc1ccc(F)cc1 (stereo not given) | 0.32 (≈ 0.949 µM) | 0.59 (≈ 1.75 µM) | 0.51 (≈ 1.51 µM) | > 200 | 0.42 (≈ 1.24 µM) | 0.31 (≈ 0.919 µM) | 0.12 (≈ 0.356 µM) | 0.52 (≈ 1.54 µM)
3 | CC1(C)OC2=C(C(=O)C(=O)c3ccccc32)C1Nc1cccc(Cl)c1 (stereo not given) | 0.39 (≈ 1.1 µM) | 0.36 (≈ 1.02 µM) | 0.51 (≈ 1.44 µM) | > 200 | 0.56 (≈ 1.58 µM) | 0.49 (≈ 1.38 µM) | 0.17 (≈ 0.48 µM) | 1.16 (≈ 3.28 µM)
4 | CC1(C)OC2=C(C(=O)C(=O)c3ccccc32)C1Nc1cccc(Br)c1 (stereo not given) | 0.5 (≈ 1.26 µM) | 0.93 (≈ 2.34 µM) | 0.7 (≈ 1.76 µM) | > 200 | 0.48 (≈ 1.21 µM) | 0.46 (≈ 1.16 µM) | 0.2 (≈ 0.502 µM) | 1.02 (≈ 2.56 µM)
5 | CC1(C)OC2=C(C(=O)C(=O)c3ccccc32)C1Nc1cccc([N+](=O)[O-])c1 (stereo not given) | 0.33 (≈ 0.906 µM) | 0.5 (≈ 1.37 µM) | 0.64 (≈ 1.76 µM) | > 200 | 0.43 (≈ 1.18 µM) | 0.41 (≈ 1.13 µM) | 0.23 (≈ 0.631 µM) | 0.42 (≈ 1.15 µM)
6 | CC1(C)OC2=C(C(=O)C(=O)c3ccccc32)C1Nc1ccccc1 (stereo not given) | 0.66 (≈ 2.07 µM) | 0.89 (≈ 2.79 µM) | 0.99 (≈ 3.1 µM) | > 200 | 0.74 (≈ 2.32 µM) | 0.31 (≈ 0.971 µM) | 0.3 (≈ 0.939 µM) | 2.72 (≈ 8.52 µM)
7 | CC1(C)OC2=C(C(=O)c3ccccc3C2=O)C1Nc1ccccc1 (stereo not given) | 2.99 (≈ 9.36 µM) | 2.52 (≈ 7.89 µM) | 1.43 (≈ 4.48 µM) | > 200 | 1 (≈ 3.13 µM) | 1.34 (≈ 4.2 µM) | 0.89 (≈ 2.79 µM) | 3.08 (≈ 9.64 µM)
8 | COc1cccc2c1C(=O)c1c(O)c3c(c(O)c1C2=O)C[C@@](O)(C(=O)CO)C[C@@H]3O[C@H]1C[C@H](N)[C@H](O)[C@H](C)O1 [DOXORUBICIN] | – | 0.25 (≈ 0.46 µM) | 0.04 (≈ 0.0736 µM) | – | 0.03 (≈ 0.0552 µM) | 0.24 (≈ 0.442 µM) | – | –
9 | CC1(C)CCC2=C(O1)c1ccccc1C(=O)C2=O [LAPACHONE] | 0.4 (≈ 1.65 µM) | 0.22 (≈ 0.908 µM) | 0.2 (≈ 0.826 µM) | > 200 | – | – | 0.06 (≈ 0.248 µM) | –
10 | CC1(C)CC2=C(O1)c1ccccc1C(=O)C2=O [NOR-BETA-LAPACHONE] | 0.4 (≈ 1.75 µM) | 0.36 (≈ 1.58 µM) | 0.31 (≈ 1.36 µM) | > 200 | – | – | 0.07 (≈ 0.307 µM) | –
